The results in this text go back to US20090131329A1, “Treatment for allograft rejection” (priority 2007, published 2009).

The test system of test [1] is lung allograft rejection (BN donor into F344 recipient). In words: Radiographic evaluation (aeration score) of transplanted lungs. In kind it is in vivo, rat. The settings on record: for aeration score (AS) of representative chest radiograph: day 7. On the procedure:
Methods. Orthotopic left lung allotransplantation was performed from Brown Norway (donor) to Fisher 344 (recipient) rats. The role of activated neutrophils in the development of allograft rejection is believed to be biphasic. Therefore, specific CXC receptor inhibition was used with antileukinate in two dosing regimens. Recipients were allocated into 4 groups: A (early administration: n=6) received two doses of antileukinate (a hexapeptide), 10.0 mg/kg intramuscularly 24 hours before and immediately after transplantation, B (continuous administration: n=8) animals continuously received antileukinate intraperitoneally (10.0 mg/kg/day) for 7 days after surgery. Experimental groups A or B were compared with their individual control that received saline alone (Cont-A and Cont-B). The progression of rejection was assessed radiographically. Each animal was sacrificed on day 7 for histologic evaluation of allograft rejection based on pathologic rejection grade. Transplant Model. Rat left-lung transplantation was performed in a RT1 (MHC) incompatible donor-recipient combination from a BN donor into a F344 recipient. Complete graft rejection in this severely mismatched combination would be expected histologically and radiographically on day 7 postoperatively. The orthotopic left-lung transplantation procedure used in this study was a modification of the ‘cuff’ technique for vascular anastomosis (Mizuta et al., 1989). In brief, the lung grafts were flushed and immersed in ice-cold normal saline solution before implantation. Cuffs with internal diameters of 1.65 mm and 2.20 mm for pulmonary arterial and venous anastomosis, respectively, were used. The left main bronchus was anastomosed using 8-0 prolene running sutures. In rats, radiographic assessment of a left-lung transplantation graft can be obscured by the right lung. Therefore, a postcaval lobectomy on the recipient's right lung was performed immediately after implantation so as to facilitate radiographic assessment of the left-lung allograft. […] Experimental groups. Recipient animals were divided into 4 groups (Table 1). Animals from group A (early administration; n=6) received 0.5 ml of phosphate-buffered saline (PBS) solution containing a 10.0 mg/kg concentration of antileukinate intramuscularly 24 hours before (day −1) and immediately after transplantation (day 0). The control group against group A (Cont-A) received 0.5 ml of PBS in a similar fashion. Allograft recipients from group B (continuous administration; n=8) were given continuous antileukinate administration intraperitoneally for 7 days after transplantation, starting immediately after surgery using a micro-osmotic pump which was implanted into the peritoneal cavity two hours before lung transplantation. Antileukinate was released into the recipient's peritoneal cavity continuously at a dose of 10.0 mg/kg/day from days 0 to 7. Animals from Cont-B served as the control group against group B receiving the same amount of PBS without antileukinate in the same manner. Implantation of micro-osmotic pumps for groups B and Cont-B. Micro-osmotic pumps (model 2001; Alzet Corp., distributed by Charles River Laboratories, Sulzfeld, Germany) were used for intraperitoneal delivery of antileukinate. […] Transplanted lungs were serially assessed every other day by chest roentgenogram under spontaneous ventilation with halothane for sedation. […] Briefly, it was evaluated and graded 0 for an opaque lung, and up to 6 for a normal-appearing lung. […]

For test [2] the test system is unchanged. In words: Histological evaluation of acute rejection (IWF rejection score) of rat lung allografts on day 7. In kind it is in vivo. On the procedure:
Methods. Orthotopic left lung allotransplantation was performed from Brown Norway (donor) to Fisher 344 (recipient) rats. The role of activated neutrophils in the development of allograft rejection is believed to be biphasic. Therefore, specific CXC receptor inhibition was used with antileukinate in two dosing regimens. Recipients were allocated into 4 groups: A (early administration: n=6) received two doses of antileukinate (a hexapeptide), 10.0 mg/kg intramuscularly 24 hours before and immediately after transplantation, B (continuous administration: n=8) animals continuously received antileukinate intraperitoneally (10.0 mg/kg/day) for 7 days after surgery. Experimental groups A or B were compared with their individual control that received saline alone (Cont-A and Cont-B). The progression of rejection was assessed radiographically. Each animal was sacrificed on day 7 for histologic evaluation of allograft rejection based on pathologic rejection grade. Transplant Model. Rat left-lung transplantation was performed in a RT1 (MHC) incompatible donor-recipient combination from a BN donor into a F344 recipient. Complete graft rejection in this severely mismatched combination would be expected histologically and radiographically on day 7 postoperatively. […]

In test [3] the test system is neutrophils in the lung allograft. In words: Number of neutrophils infiltrated into lung grafts. In kind it is in vivo, rat. The settings on record: day 7. As to the method: Transplant Model. Rat left-lung transplantation was performed in a RT1 (MHC) incompatible donor-recipient combination from a BN donor into a F344 recipient. Complete graft rejection in this severely mismatched combination would be expected histologically and radiographically on day 7 postoperatively. The orthotopic left-lung transplantation procedure used in this study was a modification of the ‘cuff’ technique for vascular anastomosis (Mizuta et al., 1989). In brief, the lung grafts were flushed and immersed in ice-cold normal saline solution before implantation. Cuffs with internal diameters of 1.65 mm and 2.20 mm for pulmonary arterial and venous anastomosis, respectively, were used. […] Acute rejection was evaluated histologically and assigned a rejection score (RS) based on the clinical international working formulation: IWF grade 0, no significant abnormality; grade 1, scattered infrequent perivascular mononuclear infiltration; grade 2, frequent perivascular mononuclear infiltration; grade 3, extension of mononuclear infiltration into alveolar septum/space; and grade 4, diffuse perivascular, interstitial, and air space infiltration of mononuclear cells. The number of neutrophils was counted in a blinded fashion in 10 random fields per slide at ×1000 magnification. […] The data were expressed as mean±standard deviation. […]

Test [4] relates to lung allograft (BN donor into F344 recipient). In words: Macroscopic findings of the allograft on day 7. In kind it is in vivo, rat. The settings on record: controls: complete consolidation without aeration. On the procedure:
Transplant Model. Rat left-lung transplantation was performed in a RT1 (MHC) incompatible donor-recipient combination from a BN donor into a F344 recipient. Complete graft rejection in this severely mismatched combination would be expected histologically and radiographically on day 7 postoperatively. The orthotopic left-lung transplantation procedure used in this study was a modification of the ‘cuff’ technique for vascular anastomosis (Mizuta et al., 1989). In brief, the lung grafts were flushed and immersed in ice-cold normal saline solution before implantation. Cuffs with internal diameters of 1.65 mm and 2.20 mm for pulmonary arterial and venous anastomosis, respectively, were used. The left main bronchus was anastomosed using 8-0 prolene running sutures. In rats, radiographic assessment of a left-lung transplantation graft can be obscured by the right lung. Therefore, a postcaval lobectomy on the recipient's right lung was performed immediately after implantation so as to facilitate radiographic assessment of the left-lung allograft. […] Experimental groups. Recipient animals were divided into 4 groups (Table 1). Animals from group A (early administration; n=6) received 0.5 ml of phosphate-buffered saline (PBS) solution containing a 10.0 mg/kg concentration of antileukinate intramuscularly 24 hours before (day −1) and immediately after transplantation (day 0). […]

The mark [5] stands for this setting: group B (continuous administration).

In the case of Ac-RRWWCR-NH2 [antileukinate], the “aeration score versus control at each time point” value in test [1] (group A (early administration) versus Cont-A) and in test [1] (group B (continuous administration) versus Cont-B) was “No significant differences” each time. Also, the “aeration score (AS) of representative chest radiograph” value was found to be 6 in test [1] (group A (early administration)) and 5 in test [1] (setting [5]). For the same substance, the “aeration score (AS) on day 7, mean±standard deviation” value in test [1] (group B: continuous ip 10.0 mg/kg/day, Cont-B 1.6±1.3, p=0.16, score 0=opaque to 6=normal-appearing lung) was determined as 2.6±2.1. The “rejection score (RS) of representative allograft” value in test [2] (group B (continuous administration), day 7, representative histology) was 1. For the same substance, the “histologic rejection score (IWF), mean±standard deviation” value in test [2] (group B: continuous ip 10.0 mg/kg/day days 0 to 7, n=8, day 7, Cont-B 3.3±0.5, p=0.018, scale 0-4) is listed as 2.1±1.0. In addition, the “neutrophil count in the graft” value in test [3] (group A: 10.0 mg/kg im day -1 and day 0, Cont-A 55.7±10.0, p=0.093) is listed as 34.8±28.7 /10HPFs; in test [3] (group B: continuous ip 10.0 mg/kg/day, Cont-B 47.9±18.4, p=0.046) it was 32.1±9.6 /10 HPFs. Also, the “macroscopic finding of the allograft” value in test [4] (group A (early administration)) and in test [4] (setting [5]) was “macroscopically adequate ventilation” in each case.
